The source of these data is patent publication US20250057993A1, “LABELED INHIBITORS OF PROSTATE SPECIFIC MEMBRANE ANTIGEN (PSMA), THEIR USE AS IMAGING AGENTS AND PHARMACEUTICAL AGENTS FOR THE TREATMENT OF PSMA-EXPRESSING CANCERS” (Universität Heidelberg, priority 2018, published 2025).

In series [1] the target is T1, PSMA (Homo sapiens, UniProt Q04609). As to the kind of experiment: Competitive binding assay (Ki) on PSMA-positive C4-2 cells. Also on record: host or cells: C4-2 cells. As to conditions: non-labeled ligands vs 0.75 nM 68Ga-PSMA-HBED-CC dimer. The protocol: In vitro and in vivo experiments were performed using the PSMA-positive C4-2 cell line, a subline of the LNCaP (lymph node carcinoma of the prostate) cell line (CRL-3314; American Type Culture Collection). C4-2 cells were cultivated in RPMI 1640 (PAN Biotech) medium supplemented with 10% fetal calf serum and stable glutamine (PAN Biotech). Cells were grown at 37° C. and incubated with humidified air equilibrated with 5% CO2.
T1 sequence (Q04609 whole entry): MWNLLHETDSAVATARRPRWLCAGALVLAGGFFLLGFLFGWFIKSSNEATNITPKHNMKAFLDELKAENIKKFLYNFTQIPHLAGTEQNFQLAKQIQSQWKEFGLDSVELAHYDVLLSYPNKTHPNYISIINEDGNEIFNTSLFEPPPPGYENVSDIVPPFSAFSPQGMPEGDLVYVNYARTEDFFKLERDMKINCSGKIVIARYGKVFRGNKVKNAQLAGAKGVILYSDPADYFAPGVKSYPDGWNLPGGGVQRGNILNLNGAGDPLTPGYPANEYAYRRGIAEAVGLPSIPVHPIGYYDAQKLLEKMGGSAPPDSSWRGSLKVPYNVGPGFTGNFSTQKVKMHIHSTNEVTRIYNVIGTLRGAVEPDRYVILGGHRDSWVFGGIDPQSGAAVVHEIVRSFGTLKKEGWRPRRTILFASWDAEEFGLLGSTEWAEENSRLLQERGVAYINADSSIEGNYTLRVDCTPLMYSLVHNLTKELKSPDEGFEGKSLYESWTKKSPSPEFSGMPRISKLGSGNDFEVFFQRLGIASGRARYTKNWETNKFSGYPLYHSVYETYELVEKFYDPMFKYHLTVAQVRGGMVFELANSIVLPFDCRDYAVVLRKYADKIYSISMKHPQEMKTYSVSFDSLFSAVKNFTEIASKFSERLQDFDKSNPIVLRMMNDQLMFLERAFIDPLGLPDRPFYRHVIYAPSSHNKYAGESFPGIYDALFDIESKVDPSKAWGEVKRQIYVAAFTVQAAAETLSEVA
A MultiScreenHTS-DV filter plate was incubated at room temperature with 100 μl PBS containing 1% BSA per well for 30 min. After removal of the PBS/BSA solution 1×10^5 C4-2 cells were added Opti-MEM to each well. […] All non-labeled compounds were dissolved in Opti-MEM at a volume of 300 μl with the following concentrations: 0, 0.5, 1, 2.5, 5, 10, 25, 50, 100, 500, 1000 and 5000 nM. Subsequently, 3 μl of the radiolabeled compound was added. 50 μl of this mixture was taken to obtain a 0.75 nM concentration of the radiolabeled ligand. After 45 min incubation at 37° C., the cells were washed twice with PBS on a multiscreen vacuum manifold (Millipore, Billerica, MA) and the cell-bound radioactivity was measured with a gamma counter (Packard Cobra II, GMI, Minnesota, USA). The inhibitory potency was determined using ^68Ga-labeled PSMA-HBED-CC dimer (i.e. PSMA-11) as reference. The Ki was calculated using a nonlinear regression algorithm (Graph Pad Prism 5.01 software). The experiments were performed in quadruplicate.

The next series has as its system C4-2 tumor. Nature of the series: Planar scintigraphic imaging of 203Pb-labeled compounds. Format: in vivo, BALB/c nu/nu mice. To be noted: tail vein injection. The protocol:
(§1) The in vivo experiments were carried out in accordance with the laws of the German Federal Republic. For PET imaging and biodistribution studies, male nude mice (Balb/c nu/nu mice) (19-23 g) were obtained from Charles River at 4-5 weeks of age and kept under specific-pathogen-free condition for 1 week prior to the study. The mice were housed with a 12-hour/12-hour light/dark cycle and had free access to water and food. The mice were anesthetized with 2% sevoflurane and inoculated subcutaneously on the right trunk with 5×10^7 C4-2 cells in 50% Matrigel in Opti-MEM I (1×) medium. Organ distribution studies were performed, when the size of the tumor was approximately 1 cm^3.
For small-animal imaging the mice were anesthetized with 2% sevoflurane. 0.1 nmol (1.0 MBq) of the ^203Pb-ligand was injected into the tail vein. Serial planar scans were performed using a Gamma Imager SCT (Biospace Lab, Paris, France) with a parallel collimator (35 mm/1.8 mm/0.2 mm) after 10 min, 1 h, 4 h, 24 h. and 72 h. Based on the imaging results, compound CA012 was chosen for biodistribution studies. Experiments were performed in triplicate.

The nature of series [2]: Serum stability of 68Ga, 177Lu and 64Cu labeled compounds (iTLC, HPLC, pellet activity). The format is in vitro ADME. As to conditions: 177Lu-labeled, human serum, 24 h. The protocol: After radiolabeling of the compounds the serum stability was determined by iTLC and HPLC analysis. 50 μL (20 MBq) of the labeled ligands was added to 200 μL of human serum (H4522; Sigma-Aldrich, Germany) and incubated at 37° C. for different time-points (0, 2 h, 24 h, 48 h and 72 h). 0.5×5 cm strips of iTLC-SG-glass microfiber chromatography paper (Folsom, California USA) were used. 0.5 μL of the radiolabeled compound in serum was applied to each strip at 1 cm from the bottom (origin) and the solvent (sodium citrate buffer (0.5 M, pH=5.0) in case of ^177Lu ligands, (1% Na-EDTA, pH=4) in case of Cu labeled ligands) front was allowed to rise to 5 cm from the bottom. Finally, each strip was cut in 8 pieces; each piece was measured in a gamma-counter. For HPLC analysis an equal volume of ACN was added to the samples to precipitate the serum proteins. Subsequently, the samples were centrifuged for 10 min at 13,000 rpm and the pellet and supernatant were separated and the relative activity was measured. The results are expressed as percent. In addition, an aliquot of the supernatant was analyzed by radio-HPLC (0-100% ACN in 5 min, Monolith column), with a flow rate of 2 mL/min.

A short description of series [3]: In vivo fate and metabolization of 64Cu-chloride and 64Cu-CA003 (PET, radio-HPLC of tissue extracts). Also on record: species or system Swiss mice. As to conditions: 10 min p.i., mouse without tumor. The protocol:
The metabolization in vivo was studied by radio-HPLC analysis. Female Swiss mice (n=3) without tumor were injected via the tail vein with ^64Cu-chloride (10 MBq in approximately 100 μL of 0.9% saline) or ^64Cu-CA003 (9 MBq, 0.30 nmol in approximately 100 μL of 0.9% saline). PET imaging was performed 10 min post injection and subsequently blood, the liver and the kidneys were harvested. The tissues were rinsed with precooled saline, blotted dry and treated with 2 mL of 0.1 M NH4OAc/EtOH (35:65). The tissues were homogenized using an Ultra-Turrax T8 (IKA Labortechnik, Germany). The samples were centrifuged for 10 min at 13,000 rpm (4° C.). Subsequently, the pellet and supernatant were separated and the relative activity was measured. The results are expressed as percent. Additionally, an aliquot of supernatant was prepared for HPLC measurement by precipitation of the proteins with ACN as described above. The sample was analyzed by radio-HPLC (0-100% ACN in 5 min, Monolith column), with a flow rate of 2 mL/min. Fractions were collected every ten seconds over the whole course of the chromatography and the relative activity of the samples was measured in a gamma-counter to reconstruct a chromatogram.

The subject of another series is C4-2 tumor xenograft. Nature of the series: Small-animal PET in C4-2 tumor bearing mice. The format is in vivo, BALB/c nu/nu mouse. The protocol: as §1
For small-animal PET imaging with various ^64Cu-labeled PSMA ligands, 0.2 nmol, 10 MBq of approximately 100 μL in 0.9% saline the radiolabeled compound were injected into a C4-2 tumor bearing mouse. The dynamic PET was recorded in a small animal PET scanner (Siemens Inveon D-PET, Malvern, PA USA). The SUV values were obtained from conventional (non-dynamic) PET images. The formula for the SUV was:
The volumes-of-interest (VOIs) were obtained by manual delineation of the appropriate whole tissue (heart, kidneys, bladder, tumor—with an approximate volume of 100-500 μl)—or parts of the tissue liver and muscle. […]

Series [4] concerns the target T1, PSMA. Details: PET/CT imaging in first patients was performed; from tissue; host or cells: tissues and tumour lesions of prostate cancer patients (in vivo PET/CT). As to conditions: values from Afshar-Oromieh et al., 2015, cited from earlier work.
Series [5] is described as follows: In vivo metabolite analysis of 177Lu-labeled ligands (radio-HPLC of tissue extracts). As to conditions: 1 h p.i., 10 MBq, 0.2 nmol. Also on record: species or system BALB/c nude mouse. The protocol: FIG. 24. In vivo metabolite analysis of ^177Lu-CA028 in comparison with ^177Lu-PSMA-617 (10 MBq, 0.2 nmol in approximately 100 μl of 0.9% saline) in a BALB/c nude mouse (tumor) at 1 h p.i. […] This proves the integrity of the complex within the main distribution period.

Read-outs that look alike come from different tables or passages of the source.

As to `O=C(O)CCC(NC(=O)NC(CCCCNC(=O)C(Cc1ccc2ccccc2c1)NC(=O)C1CCC(CNC(=O)c2ccc(CN3CCCNCCNCCCNCC3)cc2)CC1)C(=O)O)C(=O)O` (centres unmarked) [CA003], the “Ki / binding affinity to PSMA (in words)” value at PSMA [1] is on record as “particularly high affinity”.

Take `NC(=O)CN1CCN(CC(N)=O)CCN(CC(N)=O)C(Cc2ccc(NC(=S)NCC3CCC(C(=O)NC(Cc4ccc5ccccc5c4)C(=O)NCCCCC(NC(=O)NC(CCC(=O)O)C(=O)O)C(=O)O)CC3)cc2)CN(CC(N)=O)CC1` (centres unmarked) [CA009]: in the series with C4-2 tumor, the “tumor uptake / retention in planar scintigraphy (in words)” value was “high uptake of the tracer in the tumor tissue”. On PSMA [1], the “Ki / binding affinity to PSMA (in words)” value is “highest affinity”.

Consider `NC(=O)CN1CCN(CC(N)=O)CCN(CC(=O)NCC2CCC(C(=O)NC(Cc3ccc4ccccc4c3)C(=O)NCCCCC(NC(=O)NC(CCC(=O)O)C(=O)O)C(=O)O)CC2)CCN(CC(N)=O)CC1` (centres unmarked) [CA012], for which the “tumor uptake / retention in planar scintigraphy (in words)” value in the series with C4-2 tumor is “high uptake of the tracer in the tumor tissue”. Besides, on PSMA [1], the “Ki / binding affinity to PSMA (in words)” value is listed as “highest affinity”.

On to `O=C(O)CCC(NC(=O)NC(CCCCNC(=O)C(Cc1ccc2ccccc2c1)NC(=O)C1CCC(CNC(=S)Nc2ccc(CC3CN(CC(=O)O)CCN(CC(=O)O)CCN(CC(=O)O)CCN3CC(=O)O)cc2)CC1)C(=O)O)C(=O)O` (centres unmarked) [CA029], for which, in series [2], the “free 177Lu” value is listed as “no free activity”.

Regarding `O=C(O)CC[C@H](NC(=O)N[C@@H](CCCCNC(=O)[C@H](Cc1ccc2ccccc2c1)NC(=O)[C@H]1CC[C@H](CNC(=O)CN2CCN(CC(=O)O)CCN(CC(=O)O)CCN(CC(=O)O)CC2)CC1)C(=O)O)C(=O)O` [PSMA-617], the “free 177Lu” value in series [2] is “no free activity”.

Consider `[64Cu+2].[Cl-].[Cl-]` [^64Cu-chloride], for which, in series [3], the “blood circulation, maximum intensity projection PET” value worked out at 1.3; the “kidney uptake, maximum intensity projection PET” value amounted to 3.4; the “liver uptake, maximum intensity projection PET” value was found to be 2.7. Further, in the series on C4-2 tumor xenograft (2 h), the tumor-to-liver ratio is listed as 0.38. Also, in the series on C4-2 tumor xenograft (C4-2 tumour bearing mice), the “tracer accumulation in PET images (in words)” value is “very high liver accumulation”.

As to `O=C([O-])CN1CCN(CC(=O)[O-])CCN(CC(=O)NCC2CCC(C(=O)N[C@@H](Cc3ccc4ccccc4c3)C(=O)NCCCC[C@H](NC(=O)N[C@@H](CCC(=O)O)C(=O)O)C(=O)O)CC2)CCN(CC(=O)[O-])CC1.[68Ga+3]` (some centres unmarked) [^68Ga-PSMA-617], on PSMA [4] (1 h), the “SUVmean Blood pool, mediastinal” value was 2.5; the “SUVmean Bone met” value is given as 9.4; the “SUVmean Colon” value was 3.5; the “SUVmean Gluteal muscle” value is listed as 0.7. Further, at PSMA [4] (1 h), the “SUVmean Kidneys” value is recorded as 15.6, the “SUVmean Lacrimal gland” value is 4.9, the “SUVmean Liver” value is recorded as 3.3 and the “SUVmean Lymph node” value is listed as 7.1. For the same compound, at PSMA [4] (1 h), the “SUVmean Nasal mucosa” value is 2.9, the “SUVmean Parotid gland” value is reported as 10.4, the “SUVmean Prox. Small intestine” value was 4.7 and the “SUVmean Spleen” value is on record as 4.3. Also, at PSMA [4] (1 h), the “SUVmean Sublingual gland” value was 4.6 and the “SUVmean Submandibular gland” value is reported as 10. Moreover, on PSMA [4] (3 h), the “SUVmean Blood pool, mediastinal” value is on record as 2.4; the “SUVmean Bone met” value is recorded as 6.3; the “SUVmean Colon” value was 4.0; the “SUVmean Gluteal muscle” value is recorded as 0.7. Besides, at PSMA [4] (3 h), the “SUVmean Kidneys” value was 17.0, the “SUVmean Lacrimal gland” value is 5.9, the “SUVmean Liver” value was 2.7 and the “SUVmean Lymph node” value is listed as 13.5. On PSMA [4] (3 h), the “SUVmean Nasal mucosa” value is on record as 3.4, the “SUVmean Parotid gland” value is given as 13.1, the “SUVmean Prox. Small intestine” value is 5.5 and the “SUVmean Spleen” value was 3.5. On PSMA [4] (3 h), the “SUVmean Sublingual gland” value was 4.0 and the “SUVmean Submandibular gland” value was 12.4.

As to `O=C([O-])CN1CCN(CC(=O)[O-])CCN(CC(=O)NCC2CCC(C(=O)N[C@@H](Cc3ccc4ccccc4c3)C(=O)NCCCC[C@H](NC(=O)N[C@@H](CCC(=O)O)C(=O)O)C(=O)O)CC2)CCN(CC(=O)[O-])CC1.[177Lu+3]` (some centres unmarked) [^177Lu-PSMA-617], the “integrity of tracer in extracts from kidney, blood, liver and tumor (radio-HPLC)” value in series [5] was “activity elutes at the retention time of the intact tracer”.
